“Also recorded” adds a separate entry of the source.
Columns and labels:
YAP [1] = test: YAP nuclear translocation and pYAP levels in EGFPhigh SGPZ cells; assay type: cell-based, mice; conditions: immunoblot
Description: Cell culture—The HaCaT and HEK293 cell lines were cultured in DMEM medium supplemented with 10% FBS, 1% P/S (Pen/Strep) and 1% L-glutamine. Integrin α6^+CD34^+ HFSCs and integrin α6^+CD34^−EGFP^high SGPZ cells were isolated and cultured in HFSC media on sustaining J2 feeder cells. Serum was chelated for a calcium concentration of 50 μM. […] Cells were fixed in 4% PFA for 10 minutes for immunofluorescence analysis or harvested for protein or RNA extraction.
Given that Caspase-3 inhibition hindered cell number and proliferation in vitro the present inventors next examined whether this was mediated via YAP in EGFP^high SGPZ cells using K15^+ SGPZ cells. […] Similar findings as to effect of caspase-3 inhibition on YAP activation and proliferation were also obtained in HaCaT and Hek293E3 cells (FIGS. 3J-K, FIGS. 11B-F).

human melanoma cells = test: GFP-infected human melanoma cells injected into recipient mice; conditions: mouse
Description: FIG. 15A—Melanoma cell were injected into recipient mice. […] Representative image 6 days after first treatment. FIG. 15B—quantification of tumor development indicates inhibition of tumor size in response to caspase-3 inhibition. FIG. 15C—Extracted tumors were analyzed for proliferation using the Ki67 marker and the presence of GFP^+ melanoma cells. FIG. 15D—Tumors treated with the caspase-3 activator ABT-199 result in a dramatic increase in tumor mass. […] Scale bars, 20 μm.
Examination of the effect of caspase-3 inhibition on melanoma formation in vivo—For this aim human melanoma cells were stably infected with GFP. Cells were then injected into to recipient mice and the effect of administrating caspase-3 inhibitors was monitored.

[2] = test system: murine melanoma cell line B16F10; test: B16F10 melanoma tumors in mice
Description: FIG. 21E—Resected tumors stained for the proliferative marker Ki67 (red). […] Denotation: CP3, Caspase-3. ** (P<0.01), *** (P<0.001).
FIG. 22C—A histogram displaying quantification of tumor weight (mg) in treated (with Ivachtin) and non-treated (DMSO) animals. […] FIG. 22E—A histogram depicting quantification of Ki67^+ melanoma cells in vivo after treatment with Ivachtin. […] FIG. 22G—A histogram depicting quantification of TUNEL^+ melanoma cells. Denotation: CP3, Caspase-3. Scale bars: 10 μm (FIGS. 22D and 22F). * (P<0.05).

sebaceous gland (SG) = test: Sebaceous gland (SG) size and cell proliferation in mice injected subcutaneously with caspase-3 inhibitors or activators; assay type: in vivo; conditions: for SG size: eight week old mice; for SG size / cell proliferation / proliferative rates in the SG: subcutaneous injection for 7 days; for cell proliferation / proliferative rates in the SG / caspase-3 activation in the SG: mice; for caspase-3 activation in the SG: subcutaneous injection for seven days
Description: Immunofluorescence—Skins were embedded in OCT, frozen, sectioned, and fixed in 4% paraformaldehyde. Tail samples were treated with 5 mM EDTA for 4 hours at 37° C. to separate skin epithelium from dermis and fixed in formal saline for 2 hours at room temperature. Dorsal samples were treated with 5 mM EDTA for 6 hours at 37° C. to separate skin epithelium from dermis and fixed in formal saline for 1 hour at room temperature. Samples were blocked for 2 hours in Blocking buffer consisting of 10% Goat serum, 2% BSA, 0.2% Triton-X. Primary antibodies were diluted in blocking buffer and tissue/sections were incubated overnight at 4° C. Whole mounts or sections were washed at least 3 times with PBS. Secondary antibodies were incubated for 1 hour at room temperature followed by 4 washes with PBS. The following primary antibodies were used: YAP (Rabbit, 1:100, Cell Signalling, Mouse 1:100 Santa Cruz), pYAP (Rabbit, 1:100 Cell Signalling), α-E-Catenin (Rabbit, 1:100, Cell Signalling), Ki67 (Rabbit, 1:100, Abcam; Rat, 1:100, eBioscience), CD34 (Rat, 1:100, eBioscience), K15 (Mouse, 1:100, Thermo, Chicken, 1:1000, Abcam), Sox9 (Rabbit, 1:100, Millipore, Goat, 1:50, Santa Cruz). Cleaved-Caspase-3 (Rabbit, 1:100, Cell signalling), Phalloidin (1:250, Life Technologies). TUNEL was performed using ApopTag TdT (Millipore). […] Analysis was performed on Zeiss LSM 880 confocal microscope.

B16F10 melanoma cells = B16F10 melanoma cells in vitro: growth, Ki67, pYAP, α-Catenin; assay type: cell-based
Description: FIG. 23D—A histogram depicting quantifications of 501-A total cells number after treatment with Z-DEVD-fink (SEQ ID NO: 71). FIG. 23E—Images depicting B16F10 melanoma cells stained for Ki67 (red), active cleaved Caspase-3 (green) and nuclear counterstain DAPI (blue). […] Insets are zoom in on specific cells, Denotation: CP3, Caspase-3. Scale bars: 100 μm. ** (P<0.01), *** (P<0.001).
FIG. 24A—Images depicting B16F10 melanoma cells stained for pYAP (red). […] FIG. 24D—Images depicting B16F10 melanoma cells stained for α-Catenin (green). […] FIG. 24E—Immunoblot analysis of proteins isolated from B16F10 melanoma cells using antibodies against pYAP, α-Catenin and α-Tubulin as control.

[3] = test system: integrin α6+CD34+ HFSCs, HaCaT keratinocytes and Hek293E3 cells; test: Expansion of other cell types treated with caspase-3 inhibitors; assay type: cell-based
Description: In order to examine whether Caspase-3 affects the expansion of other cell types the present inventors isolated integrin α6^+CD34^+ HFSCs from second telogen mice.

[4] = test system: integrin α6+CD34−EGFPhigh SGPZ cells; test: Proliferation and expansion of isolated SGPZ cells treated with caspase-3 inhibitors; assay type: cell-based, mice
Description: Flow Cytometry—SGPZ cell isolation and FACS analysis were performed with K15-EGFP mice and CD34, integrin α6 and Sca1 antibodies. K15-GFP^high cells were isolated from ears and dorsal skin of 8-week old B6.Cg-Tg(Krt1-15-EGFP)2Cot/J mice.

[5] = test system: excision wounds (1 cm^2) on dorsal skin; test: Wound repair of full thickness excision wounds on dorsal skin; assay type: in vivo, mice
Description: For all wound repair experiments, mice were sedated with isofluorane. Mice were shaved with electric clippers and treated topically with a hair removal cream for a few minutes (Nair). Full-thickness excision wounds (1 cm^2) were generated on the dorsal skins and monitored for wound coverage. PWI, mice were individually housed. At the desired time PWI, mice were euthanized with CO2 and the wounded skins were harvested and either embedded in OCT or prepared for whole mounts as described above or for protein extraction.
Inhibition of caspase-3 impairs wound repair—Since YAP is known to play a chief role in regeneration (34), the present inventors investigated whether in vivo inhibition of Caspase-3 affects the wound repair dynamic by modulating YAP activity. […] Full thickness excision wounds (1.0 cm^2) were generated on the dorsalbacks and monitored for wound coverage. In control mice, three days post wound infliction (PWI) the wound size was reduced by 60% while in Ivachtin and z-DEVD-fink (SEQ ID NO: 71) treated mice, it was reduced by only 10% and 20%, respectively (FIG. 5A and FIG. 5B).

YAP [6] = test: Nuclear YAP and Ki67 in SGs of mice treated with PAC-1 and/or Verteporfin; assay type: in vivo
Description: Therefore, the present inventors investigated whether SG homeostasis is governed by YAP activity in a caspase-3 dependent manner. For this aim the present inventors employed the YAP chemical inhibitor, Verteporfin, which is known to inhibit the interaction between YAP and TEAD in the nucleus and block transcriptional activity (reference 42). The present inventor administered Verteporfin either alone or in combination with the caspase-3 activator PAC-1.

α-Catenin [7] = test: α-Catenin levels in vivo after caspase-3 inhibition or activation; design: species or system mice; conditions: Western blot and immunofluorescence
Description: TUNEL was performed using ApopTag TdT (Millipore). […] Analysis was performed on Zeiss LSM 880 confocal microscope.
The levels of α-Catenin are known to be a critical factor in the regulation of YAP (27). In low confluent cells, diminished levels of α-Catenin serve as a mechanotransduction mechanism that instructs the nuclear translocation of YAP and drives proliferation (27, 33). […] The present inventors therefore examined the levels of α-Catenin both in vitro and in vivo, by employing both Western blot analysis and immunofluorescence.

α-Catenin [8] = test: Immunoblot of α-Catenin in EGFPhigh SGPZ cells; assay type: cell-based, mice; conditions: extracts from EGFPhigh SGPZ cells
de novo regenerated SGs = test: De novo SG regeneration from the wound bed after full thickness excision wounds; assay type: in vivo, mice; conditions: for size and maturation of regenerated SGs: regenerating skin after wounding
Description: The wound healing process can stimulate de novo regeneration of HFs and SGs (reference 35). As such, the present inventors utilized this model to examine whether caspase-3 activation can drive SG development and maturation. Eight-week old mice were injected with DMSO, PAC-1 or PAC-1 along with Verteporfin for two days prior to wound infliction. Full thickness excision wounds (1 cm^2) were generated on the dorsalskins and skin samples were harvested 20 and 30 days post wound infliction. […] Importantly, YAP inhibition reversed these regenerative phenotypes, leading to a 10-fold reduction in the number of de novo formed SGs (FIGS. 17D and E).

XIAP [9] = test: XIAP protein and mRNA levels in EGFPhigh SGPZ cells; assay type: cell-based, mice
Description: RNA extraction, reverse transcription and real-time PCR (RT-PCR)—RNA was isolated using Trizol (Sigma) and up to 2 μg of RNA were subjected to cDNA synthesis (Applied Biosystems). Real time PCR was carried out using the PerfeCTa SYBR Green FastMix (Quanta), with gene-specific primers [RpLp0 […] (SEQ ID NO:50) and […] (SEQ ID NO:51); WTIP […] (SEQ ID NO:52) and […] (SEQ ID NO:53); ErbB4 […] (SEQ ID NO:54) and […] (SEQ ID NO:55); HOXC13 […] (SEQ ID NO:56) and […] (SEQ ID NO:57); HOXA5 […] (SEQ ID NO:58) and […] (SEQ ID NO:59)]. Amplicon levels were analysed in triplicate and quantitated relative to a standard curve comprising cDNA, and values normalized to levels of the housekeeping gene (Rplp0 or Gapdh). Reactions were: 3 minutes at 95° C., then 40 cycles of 10 seconds at 95° C. and 30 seconds at 60° C. with addition of melt curve step: 10 seconds at 95° C., and increments of 0.5° C. every 5 seconds between 65° C. to 95° C.
In Drosophila, Yorkie (Yki) the homolog of YAP directly regulates the transcription of Death-associated inhibitor of apoptosis 1 (Diap1), which is the functional equivalent of XIAP [Fuchs, Y. & Steller, H. Programmed cell death in animal development and disease. Cell 147, 742-758 (2011); Zhang, L., et al. The TEAD/TEF family of transcription factor Scalloped mediates Hippo signaling in organ size control. Developmental cell 14, 377-387 (2008)]. […]

XIAP [10] = test: XIAP expression in treated mice; assay type: in vivo; conditions: for XIAP levels: treated mice
Description: In Drosophila, Yorkie (Yki) the homolog of YAP directly regulates the transcription of Death-associated inhibitor of apoptosis 1 (Diap1), which is the functional equivalent of XIAP [Fuchs, Y. & Steller, H. Programmed cell death in animal development and disease. Cell 147, 742-758 (2011); Zhang, L., et al. The TEAD/TEF family of transcription factor Scalloped mediates Hippo signaling in organ size control. Developmental cell 14, 377-387 (2008)]. Therefore, and without being bound by any theory, the present inventors hypothesized that in the SG, XIAP might be transcriptionally regulated by YAP to balance caspase-3 activity. […] Moreover, XIAP protein levels were increased upon caspase-3 activation with PAC-1, but this effect was abolished when YAP was inhibited (FIG. 29D).

Compound: CC1(C)CCC(CN2CCN(c3ccc(C(=O)NS(=O)(=O)c4ccc(NCC5CCOCC5)c([N+](=O)[O-])c4)c(Oc4cnc5[nH]ccc5c4)c3)CC2)=C(c2ccc(Cl)cc2)C1 [ABT-199]
- levels of pYAP (YAP [1]): significantly decreased
- tumor expansion by in vivo imaging (human melanoma cells): dramatically expanded
- tumor mass (human melanoma cells; in vivo): two-fold increased
- tumor volume and weight ([2]; established B16F10 tumors): increased in volume and weight
- proliferation (Ki67) in resected tumors ([2]; mouse, in vivo): higher proliferation; also recorded: high levels of proliferation
- tumor size ([2]; mouse, in vivo): dramatic increase in size
- activated cleaved Caspase-3 in resected tumors ([2]; staining): higher expression
- SG size (sebaceous gland (SG)): significant increase
- cell proliferation / proliferative rates in the SG (sebaceous gland (SG)): significant increase
- caspase-3 activation in the SG (sebaceous gland (SG)): significant increase

Compound: CC(=O)OCCN1C(=O)c2c(C)nc3ccc(S(=O)(=O)N4CCOCC4)cc3c2C1=O [Ivachtin]
- phosphorylated YAP-positive cells (pYAP+) (B16F10 melanoma cells; compared to DMSO): significant increases
- growth of B16F10 melanoma cells (B16F10 melanoma cells; continuous presence of inhibitor): hindered
- expansion of cells ([3]; daily treatment): impaired the expansion
- effect on expansion of cells ([3]; not supplemented daily): very limited effect
- number of cells positive for proliferative markers Ki67 and PCNA ([4]; immunostaining, Ivachtin daily, five days): three-fold decrease
- effect on cell number and colony formation ([4]; not supplemented daily): very limited effect
- cellular expansion (proliferation and cell number) ([4]; supplemented daily): significant impairment
- levels of α-Catenin in wounded skin / invading keratinocytes ([5]; 5-7 days PWI): increased α-Catenin levels
- cleavage of α-Catenin in wounded dorsalskin ([5]; 7 days PWI, Western blot): impairment in cleavage
- number of nuclear YAP and Ki67 cells ([5]; 12 days PWI): decreased number
- wound closure ([5]; FIGS. 19A-F): significant decrease
- effect of combining caspase-3 and YAP inhibition on wound healing ([5]; Ivachtin, Verteporfin or both): no additive effect
- healing at all time points ([5]; daily subcutaneous injection): less efficient
- wound size reduced by ([5]; three days post wound infliction, injected from 2 days prior to wounding): 10%
- tumor weight ([2]; established B16F10 tumors): decrease in tumor weight
- YAP positive cells in resected tumors ([2]; mouse, in vivo): significant decreases
- cell death by TUNEL assay in resected tumors ([2]; mouse, in vivo): enhanced cell death
- proliferation (Ki67) in resected tumors ([2]; mouse, in vivo): reduced expression; also recorded: attenuated proliferation
- tumor size ([2]; mouse, in vivo): smaller tumors
- size of the SG, length, width and number of proliferating cells (sebaceous gland (SG); 20 and 30 days post injection): returned to normal
- SG size (sebaceous gland (SG)): decrease in SG size
- cell proliferation / proliferative rates in the SG (sebaceous gland (SG)): impaired proliferative rates; also recorded: significant decrease

Compound: C=CCc1cccc(/C=N/NC(=O)CN2CCN(Cc3ccccc3)CC2)c1O [PAC-1]
- numbers of nuclear YAP+/Ki67+ cells in SGs (YAP [6]; PAC-1 alone): higher numbers
- levels of α-Catenin (α-Catenin [7]): decreased levels
- levels of pYAP (YAP [1]): significantly decreased
- levels of full length α-Catenin (α-Catenin [8]): decreased levels
- ~90 kDa and ~85 kDa α-Catenin bands (cleaved) (α-Catenin [8]): much higher levels
- number of nuclear YAP and Ki67 cells ([5]; 7 days PWI): increased number
- wound healing compared with control ([5]; PAC-1 injected daily subcutaneously): healed significantly faster than control
- number of regenerated de novo SGs (de novo regenerated SGs; 20 and 30 days post wound infliction): striking increase
- size and maturation of regenerated SGs (de novo regenerated SGs): significantly larger and more developed SGs
- SG size (sebaceous gland (SG)): significant increase
- cell proliferation / proliferative rates in the SG (sebaceous gland (SG)): significant increase
- caspase-3 activation in the SG (sebaceous gland (SG)): significant increase
- XIAP levels (XIAP [9]; EGFPhigh SGPZ cells): increase in XIAP levels
- XIAP levels (XIAP [10]): increased

Compound: Verteporfin
- proliferative effect of PAC-1 (Ki67+ cells in SGs) (YAP [6]; Verteporfin in combination with PAC-1): able to overcome the positive proliferative effect of PAC-1
- nuclear translocation of YAP (YAP [6]; Verteporfin treatment): did not affect
- increased repair by PAC1 under YAP inhibition ([5]; PAC1 with VP): could be revered
- size and maturation of regenerated SGs (de novo regenerated SGs): did not develop into mature SGs
- XIAP mRNA levels, lower compared to control cells (XIAP [9]; RNA from EGFPhigh SGPZ cells): 2 fold
- PAC-1 induced increase of XIAP protein levels when YAP was inhibited (XIAP [10]; PAC-1 with Verteporfin): abolished
- XIAP levels (XIAP [10]): decrease in XIAP levels
